From patent US10738093B2, “Discovery of cationic nonribosomal peptides as Gram-negative antibiotics through global genome mining” (The Hong Kong University of Science and Technology, priority 2018, dated 2020)
Values after ≈ are worked out from the molar mass of the structure shown. Positions of bridges follow the written chain, without caps; N, C: chain ends. Non-standard residues stand in square brackets, D forms with d. Residues, ends and D or L forms follow the SMILES beside them. *: point of attachment. Octanoyl(7-Me) = CC(C)CCCCCC(=O)*; aThr = C[C@H](O)[C@H](N)C(=O)O; dOrn = NCCC[C@@H](N)C(=O)O; Orn = NCCC[C@H](N)C(=O)O

How the values were obtained:
[1] = tested on: Methicillin-resistant Staphylococcus aureus ATCC 43300; format: cell-based
Description: (§1) Minimum inhibitory concentration (MIC) was determined by broth microdilution according to CLSI guidelines. The test medium for most species was Mueller-Hinton broth (MHB). Bacteria were grown overnight to early stationary phase and adjusted in MHB to 5.0×10^5 colony-forming units per mL (c.f.u./mL) in the wells of 96-well microtiter plates, mixed with varying concentrations of test compounds and incubated at 37° C. for 24 h. […] MHBs containing 10% fetal bovine serum (Gibco), 21 mM MgCl, or 1.0 mg/ml LPS (lipopolysaccharides from Escherichia coli O55:B5, Sigma-Aldrich) were used to test their inhibitory effects.

[2] = tested on: Pseudomonas aeruginosa PAO1; format: cell-based; conditions: PAO1
Description: as §1

Candida albicans = format: cell-based
Description: as §1

[3] = tested on: Enterobacter cloacae NRRL-B-413; format: cell-based; conditions: NRRL-B-413
Description: as §1

Acinetobacter baumannii = format: cell-based
Description: as §1

[4] = tested on: Klebsiella pneumoniae NRRL-B-408; format: cell-based; conditions: NRRL-B-408
Description: as §1

Bacillus subtilis 168 = format: cell-based; conditions: 168
Description: as §1

[5] = tested on: Saccharomyces cerevisiae VL-48; test: MIC, Saccharomyces cerevisiae; format: cell-based
Description: as §1

E. coli Top10 [6] = test: Time-kill assay; format: cell-based, Escherichia coli
Description: An overnight culture of E. coli Top10 or Pseudomonas aeruginosa PAO1 cells was diluted 1:10,000 in MHB and incubated at 37° C. with agitation at 180 rpm for 2 h (early exponential). The bacteria were then challenged with antibiotics at 10×MIC, brevicidine (20 μg/ml), laterocidine (20 μg/ml) or polymyxin B (10 μg/ml) at room temperature without shaking. An untreated sample of cells was used as a negative control. At intervals, 10 μL aliquots were removed, centrifuged at 10,000 g for 1 min and resuspended in 1.0 mL of sterile PBS. Tenfold-serially-diluted suspensions were plated on MHB agar plates and incubated at 37° C. overnight. Colonies were counted and the number of c.fu. per mL was calculated. For analysis of lysis, 300 μL of culture (OD600=1.0) were treated with 10×MIC of antibiotics for 24 h. Experiments were performed in triplicate.

[7] = tested on: Colistin-resistant E. coli (E. coli ATCC 25922 carrying mcr-1); format: cell-based, Escherichia coli
Description: as §1

E. coli Top10 [8] = format: cell-based, Escherichia coli; conditions: Top10
Description: as §1

E. coli ATCC 25922 [9] = test: Atomic force microscopy of treated E. coli; format: cell-based, Escherichia coli; conditions: E. coli ATCC25922, 10×MIC
Description: (§2) The samples were then centrifuged at 8000 g for 10 min at 4° C., and the pellet was washed twice in 100 lpL of apyrogenic water. The bacteria resuspended in 50 μL of apyrogenic water were applied to mica disks and dried overnight at 28° C. before imaging. Atomic force micrographs were recorded on a Veeco Mulitmode AFM with NanoScope III controller operating in contact mode. The data were analyzed with NanoScope Analysis software v.1.40 (Veeco, USA). Scans were acquired at 25° C. at the rates of 1.0 Hz and 256 samples per line resolution. Downstream image processing and analysis were performed using NanoScope software (Bruker). Height images were flattened to compensate for cell curvature, and topographical sections were used to generate two-dimensional reconstructions of surface texture.

[10] = tested on: Escherichia coli ATCC 25922; test: Resistance acquisition during serial passaging; format: cell-based; conditions: serial passaging at subinhibitory concentrations over 30 days
Description: Escherichia coli ATCC 25922 was inoculated into MHB overnight at 37° C. with continuous shaking. Cells were diluted 10,000 times in MHB to about 1×10^6 c.f.u./mL. […] Plates with bacteria were incubated at 37° C. without shaking. […] This process was repeated for 30 d, and the final MIC was confirmed by the same antibacterial assay described above. The experiment was performed in quadruplicate, and on each day, the sample that developed the highest resistance was measured to plot the curve.

[11] = tested on: K. pneumoniae NRRL-B-3521; format: cell-based, Klebsiella pneumoniae; conditions: NRRL-B-3521
Description: as §1

P. aeruginosa PAO1 = test: Atomic force microscopy of treated P. aeruginosa; format: cell-based, Pseudomonas aeruginosa
Description: as §2

E. coli ATCC 25922 [12] = test: Neutropenic mouse thigh infection model; format: in vivo, Escherichia coli; conditions: brevicidine 30 mg/kg or laterocidine 15 mg/kg, 2 times, after 26 h
Description: In vivo activities of brevicidine and laterocidine were tested using the mouse thigh infection model. Animal studies were performed by Pharmacology Discovery Services Taiwan Ltd. (Taipei, Taiwan) in general accordance with standard guidelines on animal welfare in an AAALAC-accredited facility. The protocol was reviewed and approved by the Institutional Animal Care and Use Committee. Groups of five female specific-pathogen-free ICR (CD-1) mice weighing 22±2 g (˜5 weeks of age) were used. Animals were immunosuppressed with two intraperitoneal injections of cyclophosphamide, the first at 150 mg/kg 4 d before infection (day −4) and the second at 100 mg/kg 1 d before infection (day −1). On day 0, animals were inoculated intramuscularly (0.1 ml/thigh) in the right thigh with an E. coli ATCC 25922 suspension. Vehicle (10% DMSO, 1% Tween 80, 0.9% NaCl) and antibiotics were then subcutaneously injected 2 h and 8 h later. Due to limited amount of compounds 1-2, only one concentration of 1(30 mg/kg) or 2 (15 mg/kg) was used in this study. At 26 h after inoculation, animals were euthanized by CO2 asphyxiation before the muscle of the right thigh was harvested from each test animal. The removed muscle was homogenized in 5 mL of PBS, pH 7.4, with a polytron homogenizer. Homogenates in the amount of 0.1 mL were used for serial tenfold dilutions and plated onto a nutrient agar medium for colony count (c.f.u./g) determination.

[13] = tested on: Escherichia coli ATCC 25922; test: microbe, parasite or virus in culture; format: cell-based; conditions: ATCC 25922
Description: as §1

E. cloacae NRRL-B-425 = format: cell-based, Enterobacter cloacae; conditions: NRRL-B-425
Description: as §1

E. coli Top10 [14] = test: Bacterial growth kinetics; format: cell-based, Escherichia coli; conditions: E. coli cells exposed to compound
Description: A fresh single colony of E. coli Top10 was inoculated into MHB (5 mL) and grown with shaking at 225 rpm overnight. The bacteria were diluted to 1×10^5 c.f.u./mL in fresh MHB, grown […] to early log-phase (OD=0.15) and treated with the antibiotics of interest in the wells of a 96-well plate. Final antibiotic concentrations varied from 1×MIC to 8×MIC. The plate was then incubated at 30° C. overnight, with OD 600 measurements taken every 30 seconds.

`CC[C@H](C)[C@@H]1NC(=O)[C@@H](NC(=O)[C@H](Cc2c[nH]c3ccccc23)NC(=O)[C@@H](CCCN)NC(=O)CNC(=O)[C@H](CCCN)NC(=O)[C@@H](CCCN)NC(=O)[C@@H](Cc2c[nH]c3ccccc23)NC(=O)[C@@H](Cc2ccc(O)cc2)NC(=O)[C@@H](CO)NC(=O)CCCCCC(C)C)[C@H](C)OC(=O)CNC(=O)CNC(=O)[C@H](CC(N)=O)NC1=O` [Compound 2, 7-Methyl-Octanoyl-D-Ser-D-Tyr-D-Trp-D-Orn-Orn-Gly-D-Orn-Trp-Thr-Ile-Asn-Gly-Gly (cyclized via lactone formation between Thr and the C-terminus)] ({Octanoyl(7-Me)}-[dS][dY][dW][dOrn][Orn]G[dOrn]W[aThr]INGG; ester 9-C) was tested, and the MIC ([1]; ATCC 43300) was greater than 64 µg/mL, the “MIC MRSA” value ([1]; Table 2, Methicillin-resistant Staphylococcus aureus ATCC 43300) was “ND (ND >64 μg/ml)” and the MIC [2] was 2 µg/mL (≈ 1.25 µM). The “MIC Pa” value [2] was 2 µg/mL (≈ 1.25 µM), the MIC (Candida albicans) was greater than 64 µg/mL and the “MIC Ca” value (Candida albicans; Table 2, Candida albicans) was “ND (ND >64 μg/ml)”. The MIC [3] was 2 µg/mL (≈ 1.25 µM), the “MIC En” value [3] was 2 µg/mL (≈ 1.25 µM) and the MIC (Acinetobacter baumannii) was 4 µg/mL (≈ 2.49 µM). For the same compound, the “MIC Ab” value (Acinetobacter baumannii) was 4 µg/mL (≈ 2.49 µM), the MIC [4] was 4 µg/mL (≈ 2.49 µM) and the MIC (Bacillus subtilis 168) was 32 µg/mL (≈ 19.9 µM). For the same compound, the “MIC Bs” value (Bacillus subtilis 168) was 32 µg/mL (≈ 19.9 µM), the MIC ([5]; Saccharomyces cerevisiae) was greater than 64 µg/mL and the “MIC Sc” value ([5]; Table 2, Saccharomyces cerevisiae VL-48) was “ND (ND >64 μg/ml)”. The “time of exposure to significant reduction of viable cells” value (E. coli Top10 [6]; 10 times the MIC) was 30 min, the “time of exposure to slightly reduced cell viability” value (E. coli Top10 [6]; 10 times the MIC) was 15 min and the “bactericidal against E. coli” value (E. coli Top10 [6]; growth kinetics, time-kill assay and lysis assay) was “bactericidal”. For the same compound, the MIC [7] was 2 µg/mL (≈ 1.25 µM), the MIC (E. coli Top10 [8]) was 2 µg/mL (≈ 1.25 µM) and the “cell morphology by AFM” value (E. coli ATCC 25922 [9]) was “lost their regular rod-like shape and became lumpy and rugged”. For the same compound, the development of resistance [10] was “development of resistance was not observed”, the MIC [11] was 4 µg/mL (≈ 2.49 µM) and the “cell morphology by AFM” value (P. aeruginosa PAO1) was “lost their regular rod-like shape and became lumpy and rugged”. The “bactericidal efficacy in mouse thigh infection (viable bacteria)” value (E. coli ATCC 25922 [12]) was “reduced numbers of viable bacteria”, the MIC [13] was 2 µg/mL (≈ 1.25 µM) and the “MIC Ec” value [13] was 2 µg/mL (≈ 1.25 µM). The MIC (E. cloacae NRRL-B-425) was 3 µg/mL (≈ 1.87 µM) and the “time of growth at a reduced rate before steady decrease in cell count” value (E. coli Top10 [14]) was 30 min.
